Source: patent US6555091B1, “Polypeptide capable of reacting with antibodies of patients suffering from multiple sclerosis and uses” (Bio Merieux, priority 1997, dated 2003)
No end group written: not given here.

Tested on: IgG of sera from MS patients and healthy individuals
Test: ELISA of biotinylated synthetic peptides, IgG response of individual human sera
Format: binding
Conditions: for MEAN / OD 1 / OD 2 / OD 3 / BASELINE (mark: above cut-off): 1/100
Method: Depending on the information obtained from the preceding examples, the hexapeptides SEQ ID NO: 3 and SEQ ID NO: 4 were synthesized and biotinylated according to the method described in Patent Application No. EP 93420183 with the following modifications: the peptide still bound to the resin is selectively deprotected at the N-terminal position. After overnight incubation with the biotin-NHS at 50% in DMF, the peptide is then cleaved from the resin and treated as described in the patent cited above.
The wells of a Maxisorb (trade name, Nunc) microtiter plate are saturated with 100 μl of a 50 mM NaHCO3 solution, pH 9.6, containing 10 μg/ml of streptavidin for 2 hours at 37° C. The plate is washed with TBS/0.05% Tween 20 buffer. The wells are then saturated with 250 μl of wash buffer supplemented with 10% goat serum for 1 hour at 37° C. and then washed as described above.
The sera to be analyzed are diluted 1/100 in saturation buffer, supplemented with 0.05% Tween 20 and incubated for 2 hours at 37° C. After washing, a solution of peroxidase-labeled anti-human immunoglobulin G goat antibody conjugate (marketed by Jackson Immuno Research Laboratories Inc.) is added at the dilution of 1/10,000 and the plates are incubated for 1 hour at 37° C. After washes, the ortho-phenylenediamine (OPD) substrate is added and the reaction is stopped after 10 minutes by adding 50 μl of H2SO4. The optical density is read at 492 nm.
In a test carried out with 1/100 dilutions of 11 English sera from MS patients at the remission stage and 4 negative English sera, the peptides SEQ ID NOs: 3 and 4 are recognized by 4 sera out of 11 which give a positive IgG signal compared with the negative serum which gave the highest signal.

[1] = IgG, serum 33/6 (MS+, remission)
[2] = IgG, serum 33/8 (MS+, remission)
[3] = IgG, serum 33/18 (MS+, remission)
[4] = IgG, serum No. 12 (MS−, healthy)
[5] = IgG, serum No. 13 (MS−, healthy)
[6] = IgG, serum No. 14 (MS−, healthy)
[7] = IgG, serum No. 15 (MS−, healthy)
[8] = IgG, serum QS 2 (MS+, remission)
[9] = IgG, serum QS 3 (MS+, remission)
[10] = IgG, serum QS 4 (MS+, remission)
[11] = IgG, serum QS 6 (MS+, remission)
[12] = IgG, serum QS 7 (MS+, remission)
[13] = IgG, serum QS 8 (MS+, remission)
[14] = IgG, serum QS 11 (MS+, remission)
[15] = IgG, serum QS 12 (MS+, remission)

## STGRPL [SEQ ID NO: 4]
1/100 dilutions of 11 sera from MS patients at the remission stage, 4 negative sera
  MS sera giving a positive IgG signal compared with the negative serum which gave the highest signal: 4 sera out of 11
IgG, 1/100 dilutions of 11 MS remission sera, 4 negative sera
  MS sera recognizing the peptide significantly, cut-off mean of negative sera plus 3 times the standard deviation: 3 sera out of 11
IgG, cut-off, mean of negative sera plus 3 times the standard deviation
  BASELINE: 674 optical density (×1000)
[1]
  MEAN: 496 optical density (×1000)
  OD 1: 465 optical density (×1000)
  OD 2: 496 optical density (×1000)
  OD 3: 525 optical density (×1000)
[2]
  BASELINE (mark: above cut-off): X (the mean of the values obtained with the negative sera is calculated and 3 times the standard deviation is added in order to determine a cut-off)
  MEAN: 807 optical density (×1000)
  OD 1: 849 optical density (×1000)
  OD 2: 820 optical density (×1000)
  OD 3: 753 optical density (×1000)
[3]
  MEAN: 267 optical density (×1000)
  OD 1: 258 optical density (×1000)
  OD 2: 243 optical density (×1000)
  OD 3: 299 optical density (×1000)
[4]
  MEAN: 518 optical density (×1000)
  OD 1: 567 optical density (×1000)
  OD 2: 518 optical density (×1000)
  OD 3: 469 optical density (×1000)
[5]
  MEAN: 271 optical density (×1000)
  OD 1: 286 optical density (×1000)
  OD 2: 278 optical density (×1000)
  OD 3: 268 optical density (×1000)
[6]
  MEAN: 359 optical density (×1000)
  OD 1: 322 optical density (×1000)
  OD 2: 401 optical density (×1000)
  OD 3: 354 optical density (×1000)
[7]
  MEAN: 442 optical density (×1000)
  OD 1: 423 optical density (×1000)
  OD 2: 432 optical density (×1000)
  OD 3: 470 optical density (×1000)
[8]
  MEAN: 277 optical density (×1000)
  OD 1: 267 optical density (×1000)
  OD 2: 296 optical density (×1000)
  OD 3: 267 optical density (×1000)
[9]
  MEAN: 624 optical density (×1000)
  OD 1: 668 optical density (×1000)
  OD 2: 618 optical density (×1000)
  OD 3: 585 optical density (×1000)
[10]
  BASELINE (mark: above cut-off): X (the mean of the values obtained with the negative sera is calculated and 3 times the standard deviation is added in order to determine a cut-off)
  MEAN: 1026 optical density (×1000)
  OD 1: 1096 optical density (×1000)
  OD 2: 1120 optical density (×1000)
  OD 3: 862 optical density (×1000)
[11]
  MEAN: 206 optical density (×1000)
  OD 1: 204 optical density (×1000)
  OD 2: 212 optical density (×1000)
  OD 3: 201 optical density (×1000)
[12]
  BASELINE (mark: above cut-off): X (the mean of the values obtained with the negative sera is calculated and 3 times the standard deviation is added in order to determine a cut-off)
  MEAN: 1380 optical density (×1000)
  OD 1: 1379 optical density (×1000)
  OD 2: 1437 optical density (×1000)
  OD 3: 1323 optical density (×1000)
[13]
  MEAN: 552 optical density (×1000)
  OD 1: 523 optical density (×1000)
  OD 2: 504 optical density (×1000)
  OD 3: 630 optical density (×1000)
[14]
  MEAN: 269 optical density (×1000)
  OD 1: 272 optical density (×1000)
  OD 2: 273 optical density (×1000)
  OD 3: 261 optical density (×1000)
[15]
  MEAN: 237 optical density (×1000)
  OD 1: 271 optical density (×1000)
  OD 2: 227 optical density (×1000)
  OD 3: 212 optical density (×1000)
